Values of other authors as cited in patent US20110212189A1, “GASTRORETENTIVE ORAL HIGH DOSE ZINC PREPARATIONS” (ADEONA PHARMACEUTICALS, INC., priority 2009, published 2011).

Details: 50 mg elemental zinc taken with food

O=S(=O)([O-])[O-].[Zn+2] [zinc sulphate]
nausea/vomiting effects: same effects have been observed
